Test results as given in patent EP4722207A1, “OXOISOINDOLINYL-SUBSTITUTED TETRAHYDROPYRIMIDINEDIONE DERIVATIVE AND USE THEREOF” (Gluetacs Therapeutics (Shanghai) Co., Ltd., priority 2023, dated 2024).

Columns and labels:
Assay type in all cases: cell-based
[1] = target: T1, IKZF1 (Homo sapiens, UniProt Q13422+Q96SW2); assay: Western-blot assay, substrate protein degradation in hPBMCs: IKZF1; details: for substrate protein remaining % IKZF1: 24 hours of compound treatment, 50 nM and 500 nM; for IKZF1 substrate protein remaining %: compounds at 50 nM and 500 nM, 24 hours
T1 construct: effects of the compounds of the present disclosure on the expression of target proteins in cells; endogenous in cells; host or cells: human PBMCs (hPBMCs)
T1 sequence (Q13422 whole entry): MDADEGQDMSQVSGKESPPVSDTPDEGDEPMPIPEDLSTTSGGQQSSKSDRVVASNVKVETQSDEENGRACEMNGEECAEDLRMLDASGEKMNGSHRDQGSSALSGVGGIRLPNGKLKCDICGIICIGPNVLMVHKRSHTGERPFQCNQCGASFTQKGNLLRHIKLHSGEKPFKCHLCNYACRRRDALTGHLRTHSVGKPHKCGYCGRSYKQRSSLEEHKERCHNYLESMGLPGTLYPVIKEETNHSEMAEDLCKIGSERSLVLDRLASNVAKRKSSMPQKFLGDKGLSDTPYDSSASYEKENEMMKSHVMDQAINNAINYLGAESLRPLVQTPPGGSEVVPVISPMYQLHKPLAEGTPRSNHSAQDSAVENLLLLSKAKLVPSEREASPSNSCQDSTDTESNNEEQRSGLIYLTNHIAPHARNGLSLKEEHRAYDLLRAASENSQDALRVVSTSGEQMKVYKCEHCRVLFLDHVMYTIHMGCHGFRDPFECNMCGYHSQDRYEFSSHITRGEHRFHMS
T1 sequence (Q96SW2 whole entry): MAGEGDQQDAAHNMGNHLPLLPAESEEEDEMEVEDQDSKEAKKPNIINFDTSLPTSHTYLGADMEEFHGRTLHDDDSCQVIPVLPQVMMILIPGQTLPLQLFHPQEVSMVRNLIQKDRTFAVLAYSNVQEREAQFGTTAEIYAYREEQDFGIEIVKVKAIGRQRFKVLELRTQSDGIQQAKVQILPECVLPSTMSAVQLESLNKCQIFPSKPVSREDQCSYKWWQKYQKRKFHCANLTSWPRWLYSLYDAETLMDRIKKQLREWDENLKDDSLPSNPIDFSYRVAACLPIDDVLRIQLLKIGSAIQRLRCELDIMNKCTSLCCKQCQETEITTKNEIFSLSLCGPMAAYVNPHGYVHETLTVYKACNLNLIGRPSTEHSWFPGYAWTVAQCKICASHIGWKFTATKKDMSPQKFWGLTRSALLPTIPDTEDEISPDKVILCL
T1 sequence (Q16531 whole entry partner): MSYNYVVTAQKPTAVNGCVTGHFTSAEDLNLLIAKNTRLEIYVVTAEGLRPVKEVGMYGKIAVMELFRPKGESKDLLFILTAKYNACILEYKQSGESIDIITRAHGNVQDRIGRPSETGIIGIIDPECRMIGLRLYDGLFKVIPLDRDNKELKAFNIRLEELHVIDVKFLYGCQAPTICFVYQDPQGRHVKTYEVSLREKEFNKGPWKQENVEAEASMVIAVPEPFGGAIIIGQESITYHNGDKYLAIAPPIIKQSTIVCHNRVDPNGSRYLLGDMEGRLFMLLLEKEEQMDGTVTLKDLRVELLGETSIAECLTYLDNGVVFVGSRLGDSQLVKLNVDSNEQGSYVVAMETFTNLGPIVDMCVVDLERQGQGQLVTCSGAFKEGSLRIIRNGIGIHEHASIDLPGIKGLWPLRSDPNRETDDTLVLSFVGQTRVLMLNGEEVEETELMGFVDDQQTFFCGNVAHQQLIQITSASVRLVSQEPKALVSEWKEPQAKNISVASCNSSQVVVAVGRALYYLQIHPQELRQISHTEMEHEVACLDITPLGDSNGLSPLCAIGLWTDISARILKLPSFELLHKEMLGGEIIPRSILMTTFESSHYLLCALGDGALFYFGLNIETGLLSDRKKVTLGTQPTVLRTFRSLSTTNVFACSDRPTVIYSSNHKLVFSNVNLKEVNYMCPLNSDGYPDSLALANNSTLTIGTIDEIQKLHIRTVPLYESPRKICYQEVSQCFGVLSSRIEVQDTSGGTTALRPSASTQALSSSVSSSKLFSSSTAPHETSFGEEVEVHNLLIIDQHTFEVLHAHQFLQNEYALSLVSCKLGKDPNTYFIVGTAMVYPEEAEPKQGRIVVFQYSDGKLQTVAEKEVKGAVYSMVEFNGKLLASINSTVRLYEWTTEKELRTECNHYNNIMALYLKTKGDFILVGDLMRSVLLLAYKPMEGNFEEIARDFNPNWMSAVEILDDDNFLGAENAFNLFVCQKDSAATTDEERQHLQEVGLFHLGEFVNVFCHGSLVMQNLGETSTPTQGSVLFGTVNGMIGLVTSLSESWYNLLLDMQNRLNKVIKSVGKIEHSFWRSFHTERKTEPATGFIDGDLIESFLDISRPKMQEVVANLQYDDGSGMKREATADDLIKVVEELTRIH

[2] = target: T2, IKZF3 (Homo sapiens, UniProt Q96SW2+Q9UKT9); assay: Western-blot assay, substrate protein degradation in hPBMCs: IKZF3; details: for substrate protein remaining % IKZF3: 24 hours of compound treatment, 50 nM and 500 nM; for IKZF3 substrate protein remaining %: compounds at 50 nM and 500 nM, 24 hours
T2 construct: effects of the compounds of the present disclosure on the expression of target proteins in cells; endogenous in cells; host or cells: human PBMCs (hPBMCs)

[3] = target: T3, GSPT1 (Homo sapiens, UniProt P15170+Q96SW2); assay: Western-blot assay, substrate protein degradation in hPBMCs: GSPT1; details: for substrate protein remaining % GSPT1: 24 hours of compound treatment, 50 nM and 500 nM; for GSPT1 substrate protein remaining %: compounds at 50 nM and 500 nM, 24 hours
T3 construct: effects of the compounds of the present disclosure on the expression of target proteins in cells; endogenous in cells; host or cells: human PBMCs (hPBMCs)
T3 sequence (P15170 whole entry): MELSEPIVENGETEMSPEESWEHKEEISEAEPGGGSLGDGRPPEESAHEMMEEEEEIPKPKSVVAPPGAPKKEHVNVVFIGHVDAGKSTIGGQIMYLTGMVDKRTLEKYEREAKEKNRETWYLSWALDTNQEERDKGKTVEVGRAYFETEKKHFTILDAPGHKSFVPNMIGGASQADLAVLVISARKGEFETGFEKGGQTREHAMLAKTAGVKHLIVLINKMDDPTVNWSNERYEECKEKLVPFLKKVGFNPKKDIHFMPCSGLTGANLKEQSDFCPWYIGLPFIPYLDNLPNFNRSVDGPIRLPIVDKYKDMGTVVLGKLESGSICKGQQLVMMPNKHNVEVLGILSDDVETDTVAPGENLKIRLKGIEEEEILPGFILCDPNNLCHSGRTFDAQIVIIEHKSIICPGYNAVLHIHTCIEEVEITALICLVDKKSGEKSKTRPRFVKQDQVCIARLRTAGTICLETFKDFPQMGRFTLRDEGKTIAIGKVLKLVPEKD
T3 sequence (Q96SW2 whole entry): as the sequence (Q96SW2 whole entry) above
T3 sequence (Q16531 whole entry partner): as the sequence (Q16531 whole entry partner) above

[4] = target: T4, WEE1 (Homo sapiens, UniProt P30291+Q96SW2); assay: Western-blot assay, substrate protein degradation in hPBMCs: WEE1; details: for substrate protein remaining % WEE1: 24 hours of compound treatment, 50 nM and 500 nM; for WEE1 substrate protein remaining %: compounds at 50 nM and 500 nM, 24 hours
T4 construct: effects of the compounds of the present disclosure on the expression of target proteins in cells; endogenous in cells; host or cells: human PBMCs (hPBMCs)
T4 sequence (P30291 whole entry): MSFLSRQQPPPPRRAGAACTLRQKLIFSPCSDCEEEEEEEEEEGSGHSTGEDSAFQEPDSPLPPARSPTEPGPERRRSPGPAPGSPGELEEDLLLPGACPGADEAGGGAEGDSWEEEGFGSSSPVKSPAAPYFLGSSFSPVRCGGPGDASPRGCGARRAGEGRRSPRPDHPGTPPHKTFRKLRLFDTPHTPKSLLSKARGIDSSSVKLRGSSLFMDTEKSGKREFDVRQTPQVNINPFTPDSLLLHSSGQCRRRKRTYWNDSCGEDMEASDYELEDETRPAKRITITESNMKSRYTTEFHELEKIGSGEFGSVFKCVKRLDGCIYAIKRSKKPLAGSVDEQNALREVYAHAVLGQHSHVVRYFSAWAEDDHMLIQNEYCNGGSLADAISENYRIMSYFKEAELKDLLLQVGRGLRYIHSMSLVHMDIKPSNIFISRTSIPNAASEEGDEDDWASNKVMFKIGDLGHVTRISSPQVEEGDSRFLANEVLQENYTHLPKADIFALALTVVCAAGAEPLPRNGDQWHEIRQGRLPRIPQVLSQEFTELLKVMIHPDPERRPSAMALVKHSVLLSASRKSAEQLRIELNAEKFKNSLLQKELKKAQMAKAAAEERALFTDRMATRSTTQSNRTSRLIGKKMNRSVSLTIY
T4 sequence (Q96SW2 whole entry): as the sequence (Q96SW2 whole entry) above
T4 sequence (Q16531 whole entry partner): as the sequence (Q16531 whole entry partner) above

[5] = target: T5, CK1α (Homo sapiens, UniProt P48729+Q96SW2); assay: Western-blot assay, substrate protein degradation in hPBMCs: CK1α; details: for substrate protein remaining % CK1α: 24 hours of compound treatment, 50 nM and 500 nM; for CK1α substrate protein remaining %: compounds at 50 nM and 500 nM, 24 hours
T5 construct: effects of the compounds of the present disclosure on the expression of target proteins in cells; endogenous in cells; host or cells: human PBMCs (hPBMCs)
T5 sequence (P48729 whole entry): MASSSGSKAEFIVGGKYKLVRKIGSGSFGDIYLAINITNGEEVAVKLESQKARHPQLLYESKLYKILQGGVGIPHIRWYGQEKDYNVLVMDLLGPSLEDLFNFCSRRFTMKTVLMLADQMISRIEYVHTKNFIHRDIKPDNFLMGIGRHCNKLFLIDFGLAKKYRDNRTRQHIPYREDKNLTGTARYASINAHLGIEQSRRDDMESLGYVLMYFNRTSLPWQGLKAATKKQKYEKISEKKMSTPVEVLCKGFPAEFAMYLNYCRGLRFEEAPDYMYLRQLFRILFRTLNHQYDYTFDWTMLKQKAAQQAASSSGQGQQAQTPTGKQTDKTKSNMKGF
T5 sequence (Q96SW2 whole entry): as the sequence (Q96SW2 whole entry) above
T5 sequence (Q16531 whole entry partner): as the sequence (Q16531 whole entry partner) above

[6] = target: T6, IKZF2 (Homo sapiens, UniProt Q96SW2+Q9UKS7); assay: Western-blot assay, substrate protein degradation in hPBMCs: IKZF2; details: for substrate protein remaining % IKZF2: 24 hours of compound treatment, 50 nM and 500 nM; for IKZF2 substrate protein remaining %: compounds at 50 nM and 500 nM, 24 hours
T6 construct: effects of the compounds of the present disclosure on the expression of target proteins in cells; endogenous in cells; host or cells: human PBMCs (hPBMCs)
T6 sequence (Q9UKS7 whole entry): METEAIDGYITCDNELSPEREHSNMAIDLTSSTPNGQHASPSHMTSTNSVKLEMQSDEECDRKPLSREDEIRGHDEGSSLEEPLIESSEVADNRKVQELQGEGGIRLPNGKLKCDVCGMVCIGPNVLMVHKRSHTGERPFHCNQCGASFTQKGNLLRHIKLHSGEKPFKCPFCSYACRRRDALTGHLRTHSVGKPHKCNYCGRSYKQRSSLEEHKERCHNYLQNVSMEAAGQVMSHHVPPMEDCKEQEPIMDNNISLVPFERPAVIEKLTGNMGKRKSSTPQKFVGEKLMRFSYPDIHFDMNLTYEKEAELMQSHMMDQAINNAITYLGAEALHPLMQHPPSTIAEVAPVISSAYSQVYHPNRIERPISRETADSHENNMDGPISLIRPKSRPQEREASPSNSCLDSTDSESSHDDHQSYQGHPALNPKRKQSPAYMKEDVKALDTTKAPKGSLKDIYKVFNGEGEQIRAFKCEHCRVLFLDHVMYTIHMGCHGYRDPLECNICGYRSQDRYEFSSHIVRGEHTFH
T6 sequence (Q96SW2 whole entry): as the sequence (Q96SW2 whole entry) above
T6 sequence (Q16531 whole entry partner): as the sequence (Q16531 whole entry partner) above

| SMILES | substrate protein remaining % IKZF1 [1] | substrate protein remaining % IKZF3 [2] | substrate protein remaining % GSPT1 [3] | substrate protein remaining % WEE1 [4] | substrate protein remaining % CK1α [5] | substrate protein remaining % IKZF2 [6] | IKZF1 substrate protein remaining % [1] | IKZF3 substrate protein remaining % [2] | GSPT1 substrate protein remaining % [3] | WEE1 substrate protein remaining % [4] | CK1α substrate protein remaining % [5] | IKZF2 substrate protein remaining % [6] |
| --- | --- | --- | --- | --- | --- | --- | --- | --- | --- | --- | --- | --- |
| O=C1CCN(N2Cc3cc(CN4CCC(N5CCCc6cc(F)ccc65)CC4)ccc3C2=O)C(=O)N1 [GT-07584, 1-(5-((4-(6-fluoro-3,4-dihydroquinolin-1(2H)-yl)piperidin-1-yl)methyl)-1-oxoisoindolin-2-yl)dihydropyrimidine-2,4(1H,3H)-dione] | A (0% ≤ substrate protein remaining % ≤ 80%) | B (80%< substrate protein remaining %≤ 100%) | A (0% ≤ substrate protein remaining % ≤ 80%) | A (0% ≤ substrate protein remaining % ≤ 80%) | B (80%< substrate protein remaining %≤ 100%) | B (80%< substrate protein remaining %≤ 100%) |  |  |  |  |  |  |
| O=C1CCN(N2C(=O)c3ccc(CN4CC=C(c5cncc(Cl)c5)CC4)cc3C2=O)C(=O)N1 [GT-07491, 5-((5-chloro-3',6'-dihydro-[3,4'-bipyridin]-1'(2'H)-yl)methyl)-2-(2,4-dioxotetrahydropyrimidin-1(2H)-yl)isoindoline-1,3-dione] | B (80%< substrate protein remaining %≤ 100%) | B (80%< substrate protein remaining %≤ 100%) | A (0% ≤ substrate protein remaining % ≤ 80%) | A (0% ≤ substrate protein remaining % ≤ 80%) | B (80%< substrate protein remaining %≤ 100%) | B (80%< substrate protein remaining %≤ 100%) |  |  |  |  |  |  |
| O=C1CCN(N2Cc3cc(CN4CCN(c5cc(Cl)ccn5)CC4)ccc3C2=O)C(=O)N1 [GT-05128, 1-(5-((4-(4-chloropyridin-2-yl)piperazin-1-yl)methyl)-1-oxoisoindolin-2-yl)dihydropyrimidine-2,4(1H,3H)-dione] |  |  |  |  |  |  | A ("A" is defined as 0% ≤ substrate protein remaining % ≤ 80%) | A ("A" is defined as 0% ≤ substrate protein remaining % ≤ 80%) | A ("A" is defined as 0% ≤ substrate protein remaining % ≤ 80%) | A ("A" is defined as 0% ≤ substrate protein remaining % ≤ 80%) | A ("A" is defined as 0% ≤ substrate protein remaining % ≤ 80%) | A ("A" is defined as 0% ≤ substrate protein remaining % ≤ 80%) |
| O=C1CCN(N2C(=O)c3ccc(CN4CCN(c5ccncc5F)CC4)cc3C2=O)C(=O)N1 [GT-07164, 2-(2,4-dioxotetrahydropyrimidin-1(2H)-yl)-5-((4-(3-fluoropyridin-4-yl)piperazin-1-yl)methyl)isoindoline-1,3-dione] |  |  |  |  |  |  | B ("B" is defined as 80%< substrate protein remaining %≤ 100%) | B ("B" is defined as 80%< substrate protein remaining %≤ 100%) | A ("A" is defined as 0% ≤ substrate protein remaining % ≤ 80%) | B ("B" is defined as 80%< substrate protein remaining %≤ 100%) | B ("B" is defined as 80%< substrate protein remaining %≤ 100%) | A ("A" is defined as 0% ≤ substrate protein remaining % ≤ 80%) |
